Assay results reported in patent US8207216B2, “Benzofuran-3-yl(indol-3-yl) maleimides as potent GSK3 inhibitors” (The Board of Trustees of the University of Illinois, priority 2006, dated 2012).

Legend:
[1] = target: T1, recombinant human His6-GSK-3β (Homo sapiens, UniProt P49841); assay: GSK-3β kinase assay, [γ32P] transfer to primed glycogen synthase peptide; assay type: biochemical; settings: 10 μM ATP; 10 μM pGSM peptide; 30 minutes at 30° C.; read-out: IC50 (nM), GSK-3β inhibition;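 also: phosphate incorporation quantified by liquid scintillation counting of the filters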
T1 construct: His6; purchased EMD Biosciences

SKOV3 = assay: Antiproliferation assay, ovarian cancer cells; assay type: cell-based; settings: Homo sapiens, SK-OV-3; ovarian cancer cell proliferation
Method: (§1) The pancreatic cancer cell lines BxPc-3, HupT3, MiaPaCa-2, Panc 04.03, and SU86.86 were obtained from ATCC (Rockville, Md.) and were grown in medium (DMEM or RPMI) containing 10% fetal calf serum and L-glutamine. Pancreatic cancer cells were plated out in duplicate into 6-wells of a 96-well microtiter plate at 2.5−4×10^3 cells per well. Four-hours post plating, individual wells were treated with diluent (DMSO) or varying concentrations of commercial compounds, AR-A014418 and SB216763, or the indicated GSK inhibitors of this invention from a concentration of 1 nM to 50 microM. […] The IC50s were calculated using XLfit (IDBS Limited, Guildford, UK).
(§2) Similar antiproliferation assays were performed using ovarian cancer cells. Compound 40 is of particular interest for inhibition of ovarian cancer cell proliferation.

OVCA432 = assay: Antiproliferation assay, ovarian cancer cells; assay type: cell-based; settings: ovarian cancer cell proliferation
Method: as §1, §2

CDK-2/cyclinE = CDK-2/cyclinE (Homo sapiens, UniProt P24941); assay: CDK-2/CyclinE inhibition (Reaction Biology); assay type: biochemical; settings: tested at Reaction Biology, Inc.
HupT3 = assay: Antiproliferation MTS assay, pancreatic cancer cells; assay type: cell-based; settings: Homo sapiens
C57BL/6J mice = assay: Amphetamine/chlordiazepoxide hyperactivity model of mania, open field locomotor activity; assay type: in vivo; settings: 5-ING-135 50 mg/kg, 5 min pretreatment; amphetamine 4 mg/kg + chlordiazepoxide 2.5 mg/kg; 60 min
Method: Hyperactivity models are often used to mimic the mania associated with bipolar disorder.
Certain benzofuran-based ligands of this invention were studied in a novel mouse model of mania that has recently been validated with several clinically effective mood stabilizers. […] Mice were then injected with amphetamine (4 mg/kg) or amphetamine (4 mg/kg) and chlordiazepoxide (2.5 mg/kg) and locomotor activity was monitored for 60 min. The open field is a square box surrounded by an array of infra-red beams and their behavior is automatically recorded for 60 minutes in the open field test chamber (10.75″×10.75″×8″H with infra-red (I/R) array, model ENV 510, MED Associates). After this period the animals were returned to their home cages and then to the main colony.
Control treatments are as indicated. FIG. 1B illustrates similar locomotion activity data of treated mice measured in cm over 5 minute intervals for 60 minutes.

MIAPaCa-2 = assay: Antiproliferation MTS assay, pancreatic cancer cells; assay type: cell-based; settings: Homo sapiens, MIA PaCa-2; 72 hrs, MTS
GSK3α = GSK3α (Homo sapiens, UniProt P49840); assay: Inhibition of various kinases (% inhibition); assay type: biochemical
From the text: (§3) Additional examples of selectivity are illustrated in Table 4.

PKCβ2 = PKCβ2 (Homo sapiens, UniProt P05771); assay: Inhibition of various kinases (% inhibition); assay type: biochemical
From the text: as §3

CDK2 = CDK2 (Homo sapiens, UniProt P24941); assay: Inhibition of various kinases (% inhibition); assay type: biochemical
From the text: as §3

PDK1 = target: T2, PDK1 (Homo sapiens, UniProt O15530); assay: Inhibition of various kinases (% inhibition); assay type: biochemical
T2 sequence (O15530 1-556): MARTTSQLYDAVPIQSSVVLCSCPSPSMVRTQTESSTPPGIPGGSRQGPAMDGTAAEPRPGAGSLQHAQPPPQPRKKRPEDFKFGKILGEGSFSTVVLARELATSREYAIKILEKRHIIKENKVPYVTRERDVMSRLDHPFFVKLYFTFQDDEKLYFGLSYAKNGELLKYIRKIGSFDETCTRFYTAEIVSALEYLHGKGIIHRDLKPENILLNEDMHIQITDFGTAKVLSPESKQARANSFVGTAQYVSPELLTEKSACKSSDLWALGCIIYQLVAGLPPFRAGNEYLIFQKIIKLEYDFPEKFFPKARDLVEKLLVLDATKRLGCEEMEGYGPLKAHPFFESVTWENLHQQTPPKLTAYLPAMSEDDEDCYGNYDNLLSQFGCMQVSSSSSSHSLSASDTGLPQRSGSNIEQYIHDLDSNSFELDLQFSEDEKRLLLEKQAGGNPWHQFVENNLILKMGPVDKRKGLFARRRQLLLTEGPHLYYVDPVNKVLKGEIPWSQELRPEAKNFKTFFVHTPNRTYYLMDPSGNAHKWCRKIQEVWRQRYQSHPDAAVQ
From the text: as §3

BXPC-3 = assay: Antiproliferation MTS assay, pancreatic cancer cells; assay type: cell-based; settings: Homo sapiens, BXPC-3; 72 hrs, MTS
CDK-2/cyclinA = CDK-2/cyclinA (Homo sapiens, UniProt P24941); assay: CDK panel (Reaction Biology); assay type: biochemical; settings: tested at Reaction Biology, Inc.
CDK-6/cyclinD3 = CDK-6/cyclinD3 (Homo sapiens, UniProt Q00534); assay: CDK panel (Reaction Biology); assay type: biochemical; settings: tested at Reaction Biology, Inc.
CDK-1/cyclinB = CDK-1/cyclinB (Homo sapiens, UniProt P06493); assay: CDK panel (Reaction Biology); assay type: biochemical; settings: tested at Reaction Biology, Inc.
CDK-4/cyclinD1 = CDK-4/cyclinD1 (Homo sapiens, UniProt P11802); assay: CDK panel (Reaction Biology); assay type: biochemical; settings: tested at Reaction Biology, Inc.
Sequence of CDK-4/cyclinD1 (P11802 whole entry, species assumed): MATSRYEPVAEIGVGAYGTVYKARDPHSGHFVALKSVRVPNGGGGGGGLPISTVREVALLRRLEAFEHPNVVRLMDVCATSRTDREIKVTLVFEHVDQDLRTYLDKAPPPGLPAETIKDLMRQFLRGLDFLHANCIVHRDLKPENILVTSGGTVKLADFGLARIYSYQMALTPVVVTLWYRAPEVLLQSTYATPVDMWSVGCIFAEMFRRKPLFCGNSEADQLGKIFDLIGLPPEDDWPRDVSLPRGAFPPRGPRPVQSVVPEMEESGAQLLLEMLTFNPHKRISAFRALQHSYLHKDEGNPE
Sequence of CDK-4/cyclinD1 (P24385 whole entry partner, species assumed): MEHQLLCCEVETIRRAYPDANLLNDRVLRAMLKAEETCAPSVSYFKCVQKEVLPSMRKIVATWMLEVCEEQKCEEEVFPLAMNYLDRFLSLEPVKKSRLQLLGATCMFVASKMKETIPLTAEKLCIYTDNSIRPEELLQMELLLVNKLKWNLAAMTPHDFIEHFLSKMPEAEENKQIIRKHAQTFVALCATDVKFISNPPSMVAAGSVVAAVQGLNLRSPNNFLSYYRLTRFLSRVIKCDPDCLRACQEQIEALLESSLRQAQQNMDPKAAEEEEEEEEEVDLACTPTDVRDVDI

Sequence of PKCβ2 (P05771 1-673 isoform P05771-2): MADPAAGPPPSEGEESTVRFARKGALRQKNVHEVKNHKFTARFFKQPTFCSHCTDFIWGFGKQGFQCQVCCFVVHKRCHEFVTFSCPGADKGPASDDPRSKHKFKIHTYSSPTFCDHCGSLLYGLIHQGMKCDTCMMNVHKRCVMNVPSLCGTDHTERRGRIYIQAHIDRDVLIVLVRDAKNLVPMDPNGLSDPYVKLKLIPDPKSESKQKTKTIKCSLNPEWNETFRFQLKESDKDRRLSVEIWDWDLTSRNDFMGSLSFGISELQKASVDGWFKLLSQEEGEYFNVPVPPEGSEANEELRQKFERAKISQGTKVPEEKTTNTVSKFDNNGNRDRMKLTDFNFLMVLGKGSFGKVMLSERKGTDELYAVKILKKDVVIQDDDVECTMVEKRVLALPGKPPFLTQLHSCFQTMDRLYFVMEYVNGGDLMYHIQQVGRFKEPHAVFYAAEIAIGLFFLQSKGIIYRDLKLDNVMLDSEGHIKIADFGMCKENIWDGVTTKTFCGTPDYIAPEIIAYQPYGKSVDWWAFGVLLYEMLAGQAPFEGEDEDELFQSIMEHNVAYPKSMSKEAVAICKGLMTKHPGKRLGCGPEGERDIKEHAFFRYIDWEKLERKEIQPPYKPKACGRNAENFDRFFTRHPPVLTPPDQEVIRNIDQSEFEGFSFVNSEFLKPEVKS
T1 sequence (P49841 whole entry): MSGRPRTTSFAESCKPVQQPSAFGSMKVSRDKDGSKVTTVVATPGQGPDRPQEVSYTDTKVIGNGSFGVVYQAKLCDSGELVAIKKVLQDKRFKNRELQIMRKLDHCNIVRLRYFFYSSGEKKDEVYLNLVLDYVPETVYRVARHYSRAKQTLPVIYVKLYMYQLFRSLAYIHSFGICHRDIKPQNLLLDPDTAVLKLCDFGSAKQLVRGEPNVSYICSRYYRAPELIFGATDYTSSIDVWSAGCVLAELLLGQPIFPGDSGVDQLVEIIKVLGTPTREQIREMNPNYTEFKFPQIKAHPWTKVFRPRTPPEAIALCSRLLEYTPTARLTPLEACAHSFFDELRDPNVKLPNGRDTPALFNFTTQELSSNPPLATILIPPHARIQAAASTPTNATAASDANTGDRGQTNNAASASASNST
Sequence of GSK3α (P49840 whole entry, species assumed): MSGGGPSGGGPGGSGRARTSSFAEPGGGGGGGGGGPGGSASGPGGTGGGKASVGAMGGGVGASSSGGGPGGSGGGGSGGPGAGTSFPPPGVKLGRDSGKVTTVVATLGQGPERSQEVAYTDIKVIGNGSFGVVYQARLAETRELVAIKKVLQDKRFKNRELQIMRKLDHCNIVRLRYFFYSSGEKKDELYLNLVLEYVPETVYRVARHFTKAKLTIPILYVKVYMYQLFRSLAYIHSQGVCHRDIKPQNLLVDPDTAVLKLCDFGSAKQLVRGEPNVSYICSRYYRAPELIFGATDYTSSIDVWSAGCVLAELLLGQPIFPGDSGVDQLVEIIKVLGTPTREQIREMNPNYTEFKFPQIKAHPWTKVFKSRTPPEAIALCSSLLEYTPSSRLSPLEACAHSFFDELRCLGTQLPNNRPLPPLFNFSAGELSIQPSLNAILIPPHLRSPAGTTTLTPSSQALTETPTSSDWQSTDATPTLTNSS
Sequence of CDK-1/cyclinB (P06493 whole entry, species assumed): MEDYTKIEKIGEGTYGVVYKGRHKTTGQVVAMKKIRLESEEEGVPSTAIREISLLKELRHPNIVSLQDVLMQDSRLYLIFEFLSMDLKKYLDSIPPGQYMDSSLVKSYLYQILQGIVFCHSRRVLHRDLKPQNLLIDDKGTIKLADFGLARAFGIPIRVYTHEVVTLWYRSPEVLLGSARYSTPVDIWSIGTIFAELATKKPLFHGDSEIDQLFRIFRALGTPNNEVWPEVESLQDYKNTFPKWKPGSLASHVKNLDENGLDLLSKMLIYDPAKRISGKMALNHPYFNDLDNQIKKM
Sequence of CDK-1/cyclinB (P14635 whole entry partner, species assumed): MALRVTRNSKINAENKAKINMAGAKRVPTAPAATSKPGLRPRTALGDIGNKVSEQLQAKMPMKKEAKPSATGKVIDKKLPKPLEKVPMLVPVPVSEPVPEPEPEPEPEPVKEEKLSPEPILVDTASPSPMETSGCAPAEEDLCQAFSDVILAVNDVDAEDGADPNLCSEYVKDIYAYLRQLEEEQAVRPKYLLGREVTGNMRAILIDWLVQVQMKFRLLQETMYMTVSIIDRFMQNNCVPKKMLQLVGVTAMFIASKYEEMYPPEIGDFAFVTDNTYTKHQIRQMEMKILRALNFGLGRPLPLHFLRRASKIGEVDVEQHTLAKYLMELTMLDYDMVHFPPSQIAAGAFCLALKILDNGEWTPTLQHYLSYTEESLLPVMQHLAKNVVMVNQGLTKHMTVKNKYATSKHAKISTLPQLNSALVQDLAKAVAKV
Sequence of CDK-6/cyclinD3 (Q00534 whole entry, species assumed): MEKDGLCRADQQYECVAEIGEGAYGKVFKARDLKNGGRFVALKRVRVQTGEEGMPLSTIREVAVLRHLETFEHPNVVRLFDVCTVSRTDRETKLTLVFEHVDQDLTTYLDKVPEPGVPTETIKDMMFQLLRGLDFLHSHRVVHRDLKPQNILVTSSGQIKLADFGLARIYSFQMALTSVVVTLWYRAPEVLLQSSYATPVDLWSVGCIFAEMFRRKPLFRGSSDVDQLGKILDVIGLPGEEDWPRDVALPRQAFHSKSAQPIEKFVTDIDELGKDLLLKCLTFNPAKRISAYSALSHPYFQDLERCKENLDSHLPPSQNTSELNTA
Sequence of CDK-6/cyclinD3 (P30281 whole entry partner, species assumed): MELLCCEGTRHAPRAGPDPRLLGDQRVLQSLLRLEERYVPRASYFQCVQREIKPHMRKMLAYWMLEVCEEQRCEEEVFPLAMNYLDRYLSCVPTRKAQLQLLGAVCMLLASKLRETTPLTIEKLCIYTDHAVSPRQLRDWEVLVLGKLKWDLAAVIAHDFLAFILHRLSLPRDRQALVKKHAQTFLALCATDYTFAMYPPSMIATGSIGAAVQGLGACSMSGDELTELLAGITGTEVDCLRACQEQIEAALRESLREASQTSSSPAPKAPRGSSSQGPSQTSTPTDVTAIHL

IC50 [1] [nM] | IC50 (MIAPaCa-2) [nM] | Compound | IC50 (SKOV3) [nM] | IC50 (OVCA432) [nM] | IC50 (CDK-2/cyclinE) [nM] | IC50 (HupT3; HuP-T3, 72 hrs, MTS) [nM] | Inhibition of hyperactivity produced by amphetamine/chlordiazepoxide (locomotor activity) (C57BL/6J mice) | inhibition at 1 µM (GSK3α) [%] | inhibition at 10 µM (GSK3α) [%] | inhibition at 1 µM (PKCβ2) [%] | inhibition at 10 µM (PKCβ2) [%] | inhibition at 1 µM (CDK2) [%] | inhibition at 10 µM (CDK2) [%] | inhibition at 1 µM (PDK1) [%] | inhibition at 10 µM (PDK1) [%] | other results
9.6 ± 4 | > 50000 | C#Cc1ccc2c(c1)c(C1=C(c3coc4ccccc34)C(=O)NC1=O)cn2C [Compound 36, 3-Benzofuran-3-yl-4-(5-ethynyl-1-methyl-1H-indol-3-yl)-pyrrole-2,5-dione] |  |  |  |  | exhibited inhibition of the hyperactivity | 89 | 100 | 24 | 74 | 68 | 100 | 14 | 27 | 
131 ± 22 | 14000 | N#Cc1ccc2c(c1)c(C1=C(c3coc4cc(F)c(F)cc34)C(=O)NC1=O)cn2CC1CC1 [Compound 35, 1-Cyclopropylmethyl-3-[4-(5,6-difluoro-benzofuran-3-yl)-2,5-dioxo-2,5-dihydro-1H-pyrrol-3-yl]-1H-indole-5-carbonitrile] |  |  |  | > 50000 |  |  |  |  |  |  |  |  |  | IC50 (BXPC-3): > 50000 nM
14 ± 3 |  | Cn1cc(C2=C(c3coc4ccc(F)cc34)C(=O)NC2=O)c2ccc(O)cc21 [Compound 46, 3-(5-Fluoro-benzofuran-3-yl)-4-(6-hydroxy-1-methyl-1H-indol-3-yl)-pyrrole-2,5-dione] |  |  |  |  | exhibited inhibition of the hyperactivity |  |  |  |  |  |  |  |  | 

More lines, now with the values behind:

Compound | IC50 [1] [nM] | IC50 (MIAPaCa-2) [nM] | IC50 (SKOV3) [nM] | IC50 (OVCA432) [nM] | IC50 (CDK-2/cyclinE) [nM] | IC50 (HupT3; HuP-T3, 72 hrs, MTS) [nM] | Inhibition of hyperactivity produced by amphetamine/chlordiazepoxide (locomotor activity) (C57BL/6J mice) | inhibition at 1 µM (GSK3α) [%] | inhibition at 10 µM (GSK3α) [%] | inhibition at 1 µM (PKCβ2) [%] | inhibition at 10 µM (PKCβ2) [%] | inhibition at 1 µM (CDK2) [%] | inhibition at 10 µM (CDK2) [%] | inhibition at 1 µM (PDK1) [%] | inhibition at 10 µM (PDK1) [%] | other results
Cn1cc(C2=C(c3coc4ccccc34)C(=O)NC2=O)c2cc(I)ccc21 [Compound 28, 3-Benzofuran-3-yl-4-(5-iodo-1-methyl-1H-indol-3-yl)-pyrrole-2,5-dione] | 15.5 ± 3.5 |  | 26700 | 20000 | 1070 | > 50000 |  |  |  |  |  |  |  |  |  | IC50 (HupT3; HuP-T3, as reported in Gaisina et al. (2009) J. Med. Chem. 52(7), 1853-1863): > 50000 nM
Cn1cc(C2=C(c3coc4cc(CO)ccc34)C(=O)NC2=O)c2cc(Br)ccc21 [Compound 22, 3-(5-Bromo-1-methyl-1H-indol-3-yl)-4-(6-hydroxymethyl-benzofuran-3-yl)-pyrrole-2,5-dione] |  |  | 51500 | 14200 | 337 |  |  |  |  |  |  |  |  |  |  | IC50 (CDK-2/cyclinA): 0.55 µM; IC50 (CDK-6/cyclinD3): 0.51 µM; IC50 (CDK-1/cyclinB): 0.93 µM; IC50 (CDK-4/cyclinD1): 1.08 µM
C#CCOc1ccc2c(C3=C(c4cn(C)c5ccc(Br)cc45)C(=O)NC3=O)coc2c1 [Compound 23, 3-(5-Bromo-1-methyl-1H-indol-3-yl)-4-(6-prop-2-ynyloxy-benzofuran-3-yl)-pyrrole-2,5-dione] | 25.3 ± 2.4 |  |  |  |  |  |  | 84 | 99 | 3 | 25 | 22 | 66 | 12 | 45 | 
